Data reported in the NIST ThermoML archive (doi:10.1016/j.jct.2018.11.013).
± gives the expanded uncertainty stated by the source.

Assay: Boiling temperature at pressure P
Details: 101.3 kPa; Liquid; Ebulliometric method (Recirculating still)
With `CC(C)OC(C)C` [diisopropyl ether] the “Boiling temperature at pressure P” value was 68.62 ± 0.71 °C. In the case of `CC(C)O` [propan-2-ol], the “Boiling temperature at pressure P” value is reported as 82.12 ± 0.71 °C. For `CCCCOC(C)=O` [butyl ethanoate], the “Boiling temperature at pressure P” value was 126.11 ± 0.71 °C. For `CCOCCO` [2-ethoxyethan-1-ol], the “Boiling temperature at pressure P” value was 135.04 ± 0.71 °C.
